According to US4888355A, “Indanes and their use as antiarrhythmic agents” (priority 1986, dated 1989):

Experiments:
Kappa opiate receptor = target: T1, Kappa opiate receptor (Cavia porcellus, UniProt P41144); assay: In vitro bonding of Kappa opiate receptor; assay type: binding; conditions: guinea pig cerebellum membranes; 1 nM 3H ethylketocyclazocine; pH 7.7; 25° C., 40 minutes; read-out: CI50 (50% inhibiting concentration)
T1 construct: Membrane culots preserved at -30° C. for about 30 days and prepared from guinea pig cerebellum; from tissue; host or cells: guinea pig cerebellum membranes
T1 sequence (P41144 whole entry): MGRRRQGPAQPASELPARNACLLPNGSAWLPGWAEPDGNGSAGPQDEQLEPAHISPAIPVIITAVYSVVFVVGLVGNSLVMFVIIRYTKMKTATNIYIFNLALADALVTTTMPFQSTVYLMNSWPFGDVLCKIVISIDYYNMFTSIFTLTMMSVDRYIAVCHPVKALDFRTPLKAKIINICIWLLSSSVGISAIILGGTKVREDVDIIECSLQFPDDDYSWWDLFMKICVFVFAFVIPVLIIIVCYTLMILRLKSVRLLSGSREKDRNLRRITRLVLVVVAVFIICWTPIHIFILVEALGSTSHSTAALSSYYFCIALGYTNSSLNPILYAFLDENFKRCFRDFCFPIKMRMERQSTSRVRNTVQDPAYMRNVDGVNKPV
Description: Membrane culots preserved at -30° C. for about 30 days and prepared from guinea pig cerebellum were suspended in buffered Tris pH of 7.7. 2 ml fractions were placed in hemolysis tubes and 1 nM of 9^3 H ethylketocyclazocine and 5×10^-6 M of test compound were added thereto (in triple). When the test product displaced more than 50% of the radioactivity tied specifically to the receptor, the test was repeated with a range of seven doses to determine the dose which inhibited by 50% the radioactivity tied specifically to the receptor which is deemed CI50. The non-specific bond was determined by the addition of the known product, U-50488 H [Lahti et al., Life Science, Vol. 31 (1982), p 2257], at 10^-5 M (in triple). The mixture was incubated at 25° C. for 40 minutes, placed in a bath at 0° C. for 5 minutes and vacuum filtered. The product was rinsed with buffered Tris at a pH of 7.7 and the radioactivity was counted in the presence of Trition scintillation. The results were expressed directly as the 50% inhibiting concentration (CI50) or the concentration of the test compound which reduced by 50% radioactivity specificity fixed to the standard receptor.

Diuretic activity = assay type: in vivo; conditions: male Sprague-Dawley rats; 1 mg/kg; period t1h-t2h
Description: Male rats of the Sprague-Dawley strain weighing 180 to 200 g were fasted for 17 hours before the test but received as much water as they desired. Groups of 8 rats were used for the test doses with the rats receiving the test compound or only the vehicle. The remaining volume was measured hourly for 2 hours after administration of the compound. At the end of this period, the urine was collected and the activity of the compounds was expressed as the percentage of variation calculated as the urinary volume in the period t1h -t2h.

Acute toxicity = assay type: in vivo; conditions: mice
Description: The LDO or the dose at which there was no mortality after 8 days was determined on mice and the DLO for the compounds of Example 1,3 and 4 was 100, 100 and 200 mg/kg, respectively.

[1] = In vivo analgesic activity, hot plate test; conditions: Mus musculus, sc, 0.5 h; female mice, copper plate 56° C.; subcutaneous; 30 minutes after treatment; read-out: DA100 (dose which increased the reaction time 100%)
Description: In the hot plate test, female mice weighing 22 to 24 g were placed individually on a copper plate maintained at 56° C. and the reaction to the pain was manifested by licking of the paws by the animal. […] The mice were divided into homogenous group and the test compound was administered subcutaneously with one group receiving only the vehicle. The reaction time to pain was measured again 30 to 60 minutes after treatment and the dose which increased the reaction time 100% (DA100) 30 minutes after treatment as compared to the control animals was determined. The DA100 for the compound of Example 1 was 8 mg/kg.

[2] = Antiarythmic activity, aconitine perfusion in anesthesized rats; assay type: in vivo; conditions: male rats; 10 mg/kg intravenous, 5 minutes before aconitine perfusion 10 μg/mn; vs controls
Description: Tracheotomized male rats weighing 300 to 350 g were anesthesized intraperitonally with 1.20 g/kg of urethane and were subjected to artifical respiration of 40 to 50 insufflations of 3 ml/minute. Needles were implanted subcutaneously to register the electrocardiogram of the rats by the signal of DII derivative. The test compounds were administered intraveinously and 5 minutes later, the jugular veins of the rats were perfused with 10 μg/mn or 0.2 ml of an aconitine solution and the time of appearance of troubles in the cardiac rhythm was noted. The results were expressed as a percentage of the elongation of time of the appearance of the cardiac rhythm troubles as compared to the controls and as a function of the dose of the test compound.

SMILES	IC50 (Kappa opiate receptor) [nM]	% Variation (urinary volume) (Diuretic activity)	LDO (dose at which there was no mortality after 8 days) (Acute toxicity) [mg/kg]	ED (100% increase in reaction time) [1] [mg/kg]	% elongation of time of the appearance of the cardiac rhythm troubles [2]
CN(C(=O)Cc1cccc2sccc12)[C@@H]1c2ccccc2C[C@H]1N1CCCC1 (racemic) [Example 1, Trans (±) N-[2,3-dihydro-2-(pyrrolidin-1-yl)-1H-inden-1-yl]-N-methyl-4-benzo[b]thiophene-acetamide]	1.8	+131%	100	8	+65%
CN(C(=O)Cc1cccc2ccccc12)[C@@H]1c2ccccc2C[C@H]1N1CCCC1 (racemic) [Example 3, trans (±) N-[2,3-dihydro-2-(1-pyrrolidinyl)-1H-inden-1-yl]-N-methyl-1-naphthalene-acetamide]	4.9	+267%	100	–	–
CN(C(=O)Cc1ccc2ccccc2c1)[C@@H]1c2ccccc2C[C@H]1N1CCCC1 (racemic) [Example 4, Trans (±) N-[2,3-dihydro-2-(1-pyrrolidinyl)-1H-inden-1-yl]-N-methyl-2-naphthalene-acetamide]	–	–	200	–	–
